Measurements reported in patent US10617682B2 (ROSEMAN UNIVERSITY OF HEALTH SCIENCES, priority 2017, dated 2020).

What was measured:
[1] = HPLC potency of freshly prepared solution against USP standard prochlorperazine maleate; format: physicochemical
Procedure: The mobile phase consisted of the ion-pairing solution, acetonitrile, and methanol (50:40:10). The ion pairing solution was previously prepared by dissolving 4.33 g of sodium-1-octanesulfonic acid and 4.0 mL glacial acetic acid in 1000 mL of water. The chromatographic separation was achieved using a 3.9 mm×15 cm L1 (C18) column with 5 μm particle size. The flow-rate was 1.5 mL per minute and detection wavelength was 254 nm. The HPLC analysis was carried out by injecting 20 μL of sample into the Waters Alliance HPLC with Waters photodiode array (PDA) detector. Data acquisition and analysis was performed using WATERS® EMPOWER 3 software. The HPLC method was validated according to International Council on Harmonization (ICH) guidelines for various parameters including: linearity, accuracy and precision, robustness, and ruggedness.

[2] = Forced degradation studies by HPLC; format: physicochemical; details: 0.1 mg/mL
Procedure: The specificity of the HPLC method to degradation products was also assessed by subjecting prochlorperazine to various forced degradation conditions such as hydrolysis, oxidation, photodegradation, thermal degradation and UV irradiation.
The HPLC method used in this study was able to resolve prochlorperazine sulfoxide distinctly from prochlorperazine edisylate and trifluoperazine. […] Furthermore, forced degradation studies were also performed to assess any other degradation pathways that may interfere with prochlorperazine assay.

[3] = oral route; cited from earlier work

SMILES	potency compared with USP standard prochlorperazine maleate [1]	degradation under acid hydrolysis ([2]; 0.1 M hydrochloric acid 1 hour)	degradation under oxidation ([2]; 0.1 M hydrogen peroxide overnight)	degradation under base hydrolysis ([2]; 0.1 M sodium hydroxide 1 hour)	degradation under thermal degradation ([2]; 60° C. overnight)	degradation under photodegradation ([2]; laboratory light overnight)	degradation under UV irradiation ([2]; ultraviolet radiation overnight)	absorption [3]
CN1CCN(CCCN2c3ccccc3Sc3ccc(Cl)cc32)CC1 [prochlorperazine edisylate]	99.7±2.3%							
CN1CCN(CCCN2c3ccccc3Sc3ccc(Cl)cc32)CC1 [prochlorperazine, 2-chloro-10-[3-(4-methylpiperazin-1-yl)propyl]phenothiazine]		did not show prochlorperazine degradation	showed degradation	did not show prochlorperazine degradation	did not show prochlorperazine degradation	did not show prochlorperazine degradation	showed degradation	low and variable absorption
